{
  "source": "patent US10179782B2",
  "about": "“Substituted sulfonamide compounds” (Genentech, Inc., priority 2016, dated 2019)",
  "data": [
    {"target": "T1, human TRPA1 (Homo sapiens, UniProt O75762)", "T1 construct": "expressed in transfected cells; host or cells: CHO cells", "T1 sequence (O75762 whole entry)": "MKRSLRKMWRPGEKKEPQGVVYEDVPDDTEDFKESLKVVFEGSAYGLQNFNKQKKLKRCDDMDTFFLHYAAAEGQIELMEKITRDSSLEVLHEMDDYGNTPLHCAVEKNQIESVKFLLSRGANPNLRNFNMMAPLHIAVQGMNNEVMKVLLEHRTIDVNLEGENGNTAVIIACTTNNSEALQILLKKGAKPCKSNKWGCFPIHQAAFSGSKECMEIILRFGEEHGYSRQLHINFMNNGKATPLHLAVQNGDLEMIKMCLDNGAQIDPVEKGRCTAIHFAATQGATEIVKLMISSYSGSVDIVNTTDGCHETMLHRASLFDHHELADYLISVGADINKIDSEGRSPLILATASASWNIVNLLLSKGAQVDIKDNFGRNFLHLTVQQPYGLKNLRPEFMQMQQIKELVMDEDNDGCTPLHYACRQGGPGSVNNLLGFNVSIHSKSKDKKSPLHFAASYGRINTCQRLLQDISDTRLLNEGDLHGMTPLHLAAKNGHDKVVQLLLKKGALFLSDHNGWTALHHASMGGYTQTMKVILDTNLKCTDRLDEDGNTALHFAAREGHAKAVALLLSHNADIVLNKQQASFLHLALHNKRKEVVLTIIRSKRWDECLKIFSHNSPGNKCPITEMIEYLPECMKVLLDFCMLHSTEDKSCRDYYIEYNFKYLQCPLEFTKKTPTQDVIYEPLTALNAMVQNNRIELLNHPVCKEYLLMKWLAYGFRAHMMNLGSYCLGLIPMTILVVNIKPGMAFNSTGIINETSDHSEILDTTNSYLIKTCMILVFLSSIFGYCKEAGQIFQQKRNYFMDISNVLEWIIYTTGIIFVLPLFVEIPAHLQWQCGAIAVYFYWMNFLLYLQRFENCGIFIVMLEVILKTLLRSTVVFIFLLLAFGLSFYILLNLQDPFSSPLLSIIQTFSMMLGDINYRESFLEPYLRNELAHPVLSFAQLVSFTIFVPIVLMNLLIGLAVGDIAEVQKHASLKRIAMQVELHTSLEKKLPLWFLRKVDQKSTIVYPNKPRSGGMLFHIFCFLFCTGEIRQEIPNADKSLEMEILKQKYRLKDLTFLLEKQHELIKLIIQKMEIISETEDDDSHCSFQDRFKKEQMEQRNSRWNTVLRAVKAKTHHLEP", "experiment": "TRPA1 FLIPR Tetra calcium influx assay in CHO cells (block of cinnamaldehyde-induced calcium influx)", "type": "cell-based", "conditions": "Table 1; CHO cells expressing TRPA1; agonist cinnamaldehyde 75 uM; with vs without substituent at R2/R3; read-out: hTRPA1 CHO Ca2+ AUC EVO (IC50)", "procedure,_shortened": "(§1)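 CHO cells expressing TRPA1 were loaded with calcium dye in HBSS/20 mM HEPES, pH 7.4, 0.02% BSA, then given compound for 20 min at room temperature before ~EC80 cinnamaldehyde (75 µM human, 45 µM rat). Block of calcium influx was read on FLIPR Tetra; IC50 fitted with Hill coefficient fixed at 1.5.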", "units": {"IC50": "µM"}, "values": [
      {"smiles": "O=C(NCc1cc(-c2cnc(C(F)(F)F)nc2)ncn1)[C@@H]1C[C@@H](F)CN1S(=O)(=O)c1ccc(F)cc1", "note": "[(2S,4R)-4-fluoro-1-(4-fluorophenyl)sulfonyl-N-[[6-[2-(trifluoromethyl)pyrimidin-5-yl]pyrimidin-4-yl]methyl]pyrrolidine-2-carboxamide, reference compound]", "IC50": 0.251},
      {"smiles": "C[C@H]1[C@H](F)C[C@@H](C(=O)NCc2cc(-c3cnc(C(F)(F)F)nc3)c(Cl)cn2)N1S(=O)(=O)c1ccc(F)cc1", "note": "[drawing 604, (2S,4R,5S)-N-[[5-chloro-4-[2-(trifluoromethyl)pyrimidin-5-yl]-2-pyridyl]methyl]-4-fluoro-1-(4-fluorophenyl)sulfonyl-5-methyl-pyrrolidine-2-carboxamide]", "IC50": 0.00431}
    ]},
    {"target": "T1, human TRPA1", "experiment": "TRPA1 FLIPR Tetra calcium influx assay in CHO cells (block of cinnamaldehyde-induced calcium influx)", "type": "cell-based", "conditions": "Table 2; CHO cells expressing TRPA1; agonist cinnamaldehyde 75 uM; 20 min compound incubation; Hill coefficient fixed to 1.5; read-out: hTRPA1 CHO Ca2+ AUC EVO (IC50)", "procedure,_shortened": "as §1", "units": {"IC50": "µM"}, "values": [
      {"smiles": "C[C@H]1[C@H](F)C[C@@H](C(=O)NCc2cc([C@H]3C[C@@H](OC(F)(F)F)C3)ncc2F)N1S(=O)(=O)c1ccc(F)cc1", "note": "[Example 127, (2S,4R,5S)-4-fluoro-1-(4-fluorophenyl)sulfonyl-N-[[5-fluoro-2-[3-(trifluoromethoxy)cyclobutyl]-4-pyridyl]methyl]-5-methyl-pyrrolidine-2-carboxamide]", "IC50": 0.00427},
      {"smiles": "C[C@H]1[C@H](F)C[C@@H](C(=O)NCc2ccc(F)c(-c3cnc(C(F)(F)F)nc3)c2)N1S(=O)(=O)c1ccc(F)cc1", "note": "[Example 5, (2S,4R,5S)-4-fluoro-1-(4-fluorophenyl)sulfonyl-N-[[4-fluoro-3-[2-(trifluoromethyl)pyrimidin-5-yl]phenyl]methyl]-5-methyl-pyrrolidine-2-carboxamide]", "IC50": 0.00377},
      {"smiles": "C[C@H]1[C@H](F)C[C@@H](C(=O)NCc2ccnc(-c3cnc(C(F)(F)F)nc3)c2)N1S(=O)(=O)c1ccc(F)cc1", "note": "[Example 38, (4R,5S)-4-fluoro-1-[(4-fluorobenzene)sulfonyl]-5-methyl-N-([2-[2-(trifluoromethyl)pyrimidin-5-yl]pyridin-4-yl]methyl)pyrrolidine-2-carboxamide]", "IC50": 0.0694},
      {"smiles": "C[C@H]1CC[C@@H](C(=O)NCc2cc(-c3cnc(C(F)(F)F)nc3)ncc2F)N1S(=O)(=O)c1ccc(F)cc1", "note": "[Example 17, (2S,5S)-1-(4-fluorophenyl)sulfonyl-N-[[5-fluoro-2-[2-(trifluoromethyl)pyrimidin-5-yl]-4-pyridyl]methyl]-5-methyl-pyrrolidine-2-carboxamide]", "IC50": 0.00137},
      {"smiles": "C[C@H]1[C@H](F)C[C@@H](C(=O)NCc2cc(-c3cnc(C(F)(F)F)nc3)cc(F)c2F)N1S(=O)(=O)c1ccc(F)cc1", "note": "[Example 97, (2S,4R,5S)-N-[[2-1,3-difluoro-5-[2-(trifluoromethyl)pyrimidin-5-yl]phenyl]methyl]-4-fluoro-1-(4-fluorophenyl)sulfonyl-5-methyl-pyrrolidine-2-carboxamide]", "IC50": 0.00606},
      {"smiles": "O=C(NCc1cc(-c2cnc(C(F)(F)F)nc2)ncn1)[C@@H]1C[C@@H]2C[C@@H]2N1S(=O)(=O)c1ccc(F)cc1", "note": "[Example 18, (1S,3S,5S)-2-(4-fluorophenyl)sulfonyl-N-[[6-[2-(trifluoromethyl)pyrimidin-5-yl]pyrimidin-4-yl]methyl]-2-azabicyclo[3.1.0]hexane-3-carboxamide]", "IC50": 0.0298},
      {"smiles": "C[C@H]1[C@H](F)C[C@@H](C(=O)NCc2cc(-c3ccc(C(F)(F)F)cn3)ccn2)N1S(=O)(=O)c1ccc(F)cc1", "note": "[Example 31, (2S,4R,5S)-4-fluoro-1-(4-fluorophenylsulfonyl)-5-methyl-N-((5-(trifluoromethyl)-2,4′-bipyridin-2′-yl)methyl)pyrrolidine-2-carboxamide]", "IC50": 0.0587},
      {"smiles": "C[C@H]1[C@H](F)C[C@@H](C(=O)NCc2cc(-c3cnc(C(F)(F)F)nc3)nc(C3CC3)c2C#N)N1S(=O)(=O)c1ccc(F)cc1", "note": "[Example 104, (2S,4R,5S)—N-((3-cyano-2-cyclopropyl-6-(2-(trifluoromethyl)pyrimidin-5-yl)pyridin-4-yl)methyl)-4-fluoro-1-(4-fluorophenylsulfonyl)-5-methylpyrrolidine-2-carboxamide]", "IC50": 0.000682},
      {"smiles": "C[C@H]1[C@H](F)C[C@@H](C(=O)NCc2cc(-c3cnc(C(F)(F)F)nc3)nc(C(F)(F)F)c2)N1S(=O)(=O)c1ccc(F)cc1", "note": "[Example 113, (2S,4R,5S)-4-fluoro-1-(4-fluorophenyl)sulfonyl-5-methyl-N-[[2-(trifluoromethyl)-6-[2-(trifluoromethyl)pyrimidin-5-yl]-4-pyridyl]methyl]pyrrolidine-2-carboxamide]", "IC50": 0.00447},
      {"smiles": "C[C@H]1[C@H](F)C[C@@H](C(=O)NCc2cc(-c3cnc(C(F)(F)F)nc3)c(C(F)(F)F)cn2)N1S(=O)(=O)c1ccc(F)cc1", "note": "[Example 107, (2S,4R,5S)-4-fluoro-1-(4-fluorophenyl)sulfonyl-5-methyl-N-[[5-(trifluoromethyl)-4-[2-(trifluoromethyl)pyrimidin-5-yl]-2-pyridyl]methyl]pyrrolidine-2-carboxamide]", "IC50": 0.00974},
      {"smiles": "C[C@H]1[C@H](F)C[C@@H](C(=O)NCc2cc(-c3cnc(C(F)(F)F)nc3)ccc2F)N1S(=O)(=O)c1ccc(F)cc1", "note": "[Example 44, (2S,4R,5S)-4-fluoro-N-(2-fluoro-5-(2-(trifluoromethyl)pyrimidin-5-yl)benzyl)-1-(4-fluorophenylsulfonyl)-5-methylpyrrolidine-2-carboxamide]", "IC50": 0.00734},
      {"smiles": "C[C@H]1[C@H](F)C[C@@H](C(=O)NCc2cc(-c3cnc(C(F)(F)F)nc3)c(C3CC3)cn2)N1S(=O)(=O)c1ccc(F)cc1", "note": "[Example 49, (2S,4R,5S)-N-[[5-cyclopropyl-4-[2-(trifluoromethyl)pyrimidin-5-yl]-2-pyridyl]methyl]-4-fluoro-1-(4-fluorophenyl)sulfonyl-5-methyl-pyrrolidine-2-carboxamide]", "IC50": 0.0367},
      {"smiles": "C[C@H]1[C@H](F)C[C@@H](C(=O)NCc2cc(OC[C@@H]3C[C@H]3C(F)(F)F)nc(C3CC3)n2)N1S(=O)(=O)c1ccc(F)cc1", "note": "[Example 132, (2S,4R,5S)-N-[[2-cyclopropyl-6-[[(1R,2R)-2-(trifluoromethyl)cyclopropyl]methoxy]pyrimidin-4-yl]methyl]-4-fluoro-1-(4-fluorophenyl)sulfonyl-5-methyl-pyrrolidine-2-carboxamide]", "IC50": 0.0152},
      {"smiles": "C[C@H]1[C@H](F)C[C@@H](C(=O)NCc2cn([C@H]3CC[C@H](C(F)(F)F)CC3)nc2C(F)(F)F)N1S(=O)(=O)c1ccc(F)cc1", "note": "[Example 50, (2S,4R,5S)-4-fluoro-1-(4-fluorophenyl)sulfonyl-5-methyl-N-[[3-(trifluoromethyl)-1-[4-(trifluoromethyl)cyclohexyl]pyrazol-4-yl]methyl]pyrrolidine-2-carboxamide]", "IC50": 0.0505},
      {"smiles": "C[C@H]1[C@H](F)C[C@@H](C(=O)NCc2cn(-c3cnc(C(F)(F)F)nc3)nc2Cl)N1S(=O)(=O)c1ccc(F)cc1", "note": "[Example 62, (2S,4R,5S)-N-[[3-chloro-1-[2-(trifluoromethyl)pyrimidin-5-yl]pyrazol-4-yl]methyl]-4-fluoro-1-(4-fluorophenyl)sulfonyl-5-methyl-pyrrolidine-2-carboxamide]", "IC50": 0.0582},
      {"smiles": "O=C(NCc1cc(-c2cnc(C(F)(F)F)nc2)ncc1F)[C@@H]1[C@@H]2[C@H](CN1S(=O)(=O)c1ccc(F)cc1)C2(F)F", "note": "[Example 71, (1S,2S,5R)-6,6-difluoro-N-((5-fluoro-2-(2-(trifluoromethyl)pyrimidin-5-yl)pyridin-4-yl)methyl)-3-((4-fluorophenyl)sulfonyl)-3-azabicyclo[3.1.0]hexane-2-carboxamide]", "IC50": 0.0462},
      {"smiles": "C[C@H]1[C@H](F)C[C@@H](C(=O)NCc2cc(-c3cnc(C(F)(F)F)nc3)ncc2F)N1S(=O)(=O)c1ccccc1", "note": "[Example 27, (2S,4R,5S)-4-fluoro-N-((5-fluoro-2-(2-(trifluoromethyl)pyrimidin-5-yl)pyridin-4-yl)methyl)-5-methyl-1-(phenylsulfonyl)pyrrolidine-2-carboxamide]", "IC50": 0.0464},
      {"smiles": "C[C@H]1[C@H](F)C[C@@H](C(=O)NCc2cc(-c3cnc(C(F)(F)F)nc3)ncc2F)N1S(=O)(=O)c1ccc(F)cc1", "note": "[Example 1, (2S,4R,5S)-4-fluoro-N-([5-fluoro-2-[2-(trifluoromethyl)pyrimidin-5-yl]pyridin-4-yl]methyl)-1-[(4-fluorobenzene)sulfonyl]-5-methylpyrrolidine-2-carboxamide]", "IC50": 0.00191},
      {"smiles": "C[C@H]1[C@H](F)C[C@@H](C(=O)NCc2cc([C@H]3CC[C@H](C(F)(F)F)CC3)c(F)cn2)N1S(=O)(=O)c1ccc(F)cc1", "note": "[Example 53, (2S,4R,5S)-4-fluoro-1-(4-fluorophenyl)sulfonyl-N-[[5-fluoro-4-[4-(trifluoromethyl)cyclohexyl]-2-pyridyl]methyl]-5-methyl-pyrrolidine-2-carboxamide]", "IC50": 0.0646},
      {"smiles": "O=C(NCc1cc(-c2cnc(C(F)(F)F)nc2)ncc1F)[C@@H]1CC[C@H](C(F)(F)F)N1S(=O)(=O)c1ccc(F)cc1", "note": "[Example 61, (2S,5R)-1-(4-fluorophenyl)sulfonyl-N-[[5-fluoro-2-[2-(trifluoromethyl)pyrimidin-5-yl]-4-pyridyl]methyl]-5-(trifluoromethyl)pyrrolidine-2-carboxamide]", "IC50": 0.0216},
      {"smiles": "C[C@H]1[C@H](F)C[C@@H](C(=O)NCc2cc(-c3cnc(C(F)(F)F)nc3)nc(OCC(F)(F)F)n2)N1S(=O)(=O)c1ccc(F)cc1", "note": "[Example 124, (2S,4R,5S)-4-fluoro-1-(4-fluorophenyl)sulfonyl-5-methyl-N-[[2-(2,2,2-trifluoroethoxy)-6-[2-(trifluoromethyl)pyrimidin-5-yl]pyrimidin-4-yl]methyl]pyrrolidine-2-carboxamide]", "IC50": 0.0023},
      {"smiles": "O=C(NCc1cc(-c2cnc(C(F)(F)F)nc2)nc(C2CC2)c1)[C@@H]1C[C@@H](F)CN1S(=O)(=O)c1ccc(F)cc1", "note": "[Example 67, (2S,4R)-N-[[2-cyclopropyl-6-[2-(trifluoromethyl)pyrimidin-5-yl]-4-pyridyl]methyl]-4-fluoro-1-(4-fluorophenyl)sulfonyl-pyrrolidine-2-carboxamide]", "IC50": 0.0651}
    ]}
  ]
}
